Assay results published in ChEMBL document CHEMBL3885861, “Open TG-GATES”.

Organism: Rattus norvegicus
Test: Open TG-GATES - Regimen: Single
Type: toxicity, organism-based, Sprague-Dawley
Set-up: regimen Single, gender Male, age 6 weeks
Details: in vivo, po, 300 mg/kg, route gavage, dose level Middle; for APTT / Bas / Eos / Fbg / Hb / Ht / Lym / MCH / MCHC / MCV / Mono / Neu / PT / Plat / RBC / Ret / WBC: tissue Blood; for KIDNEY_L / KIDNEY_R / KIDNEY_TOTAL: tissue Kidney; for LIVER: tissue Liver; for ALP / ALT / AST / BUN / CRE / Ca / Cl / DBIL / GLC / IP / K / LDH / Na / PL / RALB / TBIL / TC / TG / TP / gamma-GTP: tissue Plasma

With COC(=O)C1=C(C)NC(C)=C(C(=O)OC)C1c1ccccc1[N+](=O)[O-] [NIFEDIPINE] the APTT (3 h) was 16.6 s, the Bas (3 h) was 0.2% and the Eos (3 h) was 0.6%. The Fbg (3 h) was 299.2 mg/dL, the Hb (3 h) was 12.8 g/dL and the Ht (3 h) was 39.1%. It also gave a Lym (3 h) of 75.2%, an MCH (3 h) of 21 pg and an MCHC (3 h) of 32.9%. It also gave an MCV (3 h) of 63.8 fL, a Mono (3 h) of 3.8% and a Neu (3 h) of 19.8%. It also gave a PT (3 h) of 15.1 s, a Plat (3 h) of 126.5 x10_4/uL and an RBC (3 h) of 613 x10_4/ul. The Ret (3 h) was 9.4%, the WBC (3 h) was 113.9 x10_2/uL and the KIDNEY_L (3 h) was 0.9 g. For the same compound, the KIDNEY_R (3 h) was 0.9 g, the KIDNEY_TOTAL (3 h) was 1.8 g and the LIVER (3 h) was 8.1 g. It also gave an ALP (3 h) of 1571 IU/L, an ALT (3 h) of 46.2 IU/L and an AST (3 h) of 74.8 IU/L. It also gave a BUN (3 h) of 27.6 mg/dL, a CRE (3 h) of 0.3 mg/dL and a Ca (3 h) of 11.6 mg/dL. For the same compound, the Cl (3 h) was 96.8 meq/L, the DBIL (3 h) was 0.01 mg/dL and the GLC (3 h) was 263.6 mg/dL. For the same compound, the IP (3 h) was 9.5 mg/dL, the K (3 h) was 4.7 meq/L and the LDH (3 h) was 85 IU/L. For the same compound, the Na (3 h) was 134.6 meq/L, the PL (3 h) was 135.4 mg/dL and the RALB (3 h) was 2.6 g/dL. It also gave a TBIL (3 h) of 0.034 mg/dL, a TC (3 h) of 84.2 mg/dL and a TG (3 h) of 33.6 mg/dL. The TP (3 h) was 5.3 g/dL, the gamma-GTP (3 h) was 1 IU/L and the TERMINAL_BW (6 h) was 205.3 g. It also gave an APTT (6 h) of 16.3 s, a Bas (6 h) of 0% and an Eos (6 h) of 0.6%. It also gave a Fbg (6 h) of 293.2 mg/dL, a Hb (6 h) of 13.1 g/dL and a Ht (6 h) of 40%. The Lym (6 h) was 75%, the MCH (6 h) was 20.7 pg and the MCHC (6 h) was 32.6%. For the same compound, the MCV (6 h) was 63.5 fL, the Mono (6 h) was 3.8% and the Neu (6 h) was 19.8%. The PT (6 h) was 14.9 s, the Plat (6 h) was 123.8 x10_4/uL and the RBC (6 h) was 632 x10_4/ul. The Ret (6 h) was 10%, the WBC (6 h) was 101.9 x10_2/uL and the KIDNEY_L (6 h) was 0.9 g. It also gave a KIDNEY_R (6 h) of 0.9 g, a KIDNEY_TOTAL (6 h) of 1.8 g and an LIVER (6 h) of 7.9 g. The ALP (6 h) was 1503.6 IU/L, the ALT (6 h) was 51.2 IU/L and the AST (6 h) was 78.8 IU/L. For the same compound, the BUN (6 h) was 32.2 mg/dL, the CRE (6 h) was 0.2 mg/dL and the Ca (6 h) was 11.3 mg/dL. It also gave a Cl (6 h) of 97.6 meq/L, a DBIL (6 h) of 0.006 mg/dL and a GLC (6 h) of 221.4 mg/dL. For the same compound, the IP (6 h) was 10.7 mg/dL, the K (6 h) was 5.1 meq/L and the LDH (6 h) was 78.8 IU/L. For the same compound, the Na (6 h) was 136.6 meq/L, the PL (6 h) was 150.4 mg/dL and the RALB (6 h) was 2.6 g/dL. It also gave a TBIL (6 h) of 0.042 mg/dL, a TC (6 h) of 90.6 mg/dL and a TG (6 h) of 19.4 mg/dL. The TP (6 h) was 5.5 g/dL, the gamma-GTP (6 h) was 1.2 IU/L and the TERMINAL_BW (9 h) was 206.1 g. The APTT (9 h) was 17.3 s, the Bas (9 h) was 0% and the Eos (9 h) was 0.6%. It also gave a Fbg (9 h) of 288 mg/dL, a Hb (9 h) of 13.1 g/dL and a Ht (9 h) of 39.7%. For the same compound, the Lym (9 h) was 78.2%, the MCH (9 h) was 21 pg and the MCHC (9 h) was 33%. For the same compound, the MCV (9 h) was 63.7 fL, the Mono (9 h) was 3.6% and the Neu (9 h) was 16.4%. The PT (9 h) was 14.6 s, the Plat (9 h) was 124.2 x10_4/uL and the RBC (9 h) was 623 x10_4/ul. For the same compound, the Ret (9 h) was 9.8%, the WBC (9 h) was 94.7 x10_2/uL and the KIDNEY_L (9 h) was 0.9 g. For the same compound, the KIDNEY_R (9 h) was 0.9 g, the KIDNEY_TOTAL (9 h) was 1.8 g and the LIVER (9 h) was 7.3 g. For the same compound, the ALP (9 h) was 1317.2 IU/L, the ALT (9 h) was 51.2 IU/L and the AST (9 h) was 76.6 IU/L. The BUN (9 h) was 26.8 mg/dL, the CRE (9 h) was 0.2 mg/dL and the Ca (9 h) was 10.9 mg/dL. For the same compound, the Cl (9 h) was 100.8 meq/L, the DBIL (9 h) was 0.01 mg/dL and the GLC (9 h) was 193.4 mg/dL. For the same compound, the IP (9 h) was 11.1 mg/dL, the K (9 h) was 5 meq/L and the LDH (9 h) was 72.4 IU/L. For the same compound, the Na (9 h) was 137.4 meq/L, the PL (9 h) was 156.4 mg/dL and the RALB (9 h) was 2.5 g/dL. The TBIL (9 h) was 0.046 mg/dL, the TC (9 h) was 91 mg/dL and the TG (9 h) was 28.2 mg/dL. For the same compound, the TP (9 h) was 5.4 g/dL, the gamma-GTP (9 h) was 1 IU/L and the TERMINAL_BW (24 h) was 198.5 g. For the same compound, the APTT (24 h) was 16.6 s, the Bas (24 h) was 0% and the Eos (24 h) was 1%. It also gave a Fbg (24 h) of 298.6 mg/dL, a Hb (24 h) of 13.1 g/dL and a Ht (24 h) of 40%. For the same compound, the Lym (24 h) was 67%, the MCH (24 h) was 20.4 pg and the MCHC (24 h) was 32.7%. The MCV (24 h) was 62.2 fL, the Mono (24 h) was 3.6% and the Neu (24 h) was 27%. It also gave a PT (24 h) of 14.1 s, a Plat (24 h) of 128.1 x10_4/uL and an RBC (24 h) of 643.8 x10_4/ul. It also gave a Ret (24 h) of 9%, a WBC (24 h) of 95.9 x10_2/uL and a KIDNEY_L (24 h) of 0.9 g. The KIDNEY_R (24 h) was 0.9 g, the KIDNEY_TOTAL (24 h) was 1.7 g and the LIVER (24 h) was 7.8 g. For the same compound, the ALP (24 h) was 1579.6 IU/L, the ALT (24 h) was 43.8 IU/L and the AST (24 h) was 68.4 IU/L. It also gave a BUN (24 h) of 12 mg/dL, a CRE (24 h) of 0.2 mg/dL and a Ca (24 h) of 10.6 mg/dL. The Cl (24 h) was 107.4 meq/L, the DBIL (24 h) was 0.012 mg/dL and the GLC (24 h) was 160.4 mg/dL. For the same compound, the IP (24 h) was 8.3 mg/dL, the K (24 h) was 3.9 meq/L and the LDH (24 h) was 73.8 IU/L. The Na (24 h) was 145 meq/L, the PL (24 h) was 133.6 mg/dL and the RALB (24 h) was 2.8 g/dL. It also gave a TBIL (24 h) of 0.042 mg/dL, a TC (24 h) of 77.8 mg/dL and a TG (24 h) of 41.2 mg/dL. It also gave a TP (24 h) of 5.8 g/dL and a gamma-GTP (24 h) of 0.8 IU/L.
